According to patent publication US11434490B2, “Fluorogen-binding RNA aptamers” (CENTRE NATIONAL DE LA RECHERCHE SCIENTIFIQUE, priority 2017, dated 2022):
Entries after “also recorded” stand apart in the source; their conditions may differ.

Legend:
[1] = Fluorescence titration, binding affinity for TO1-OAc; conditions: ligand TO1-OAc
Text: (§1) We determined the affinity and fluorescence enhancement of four compounds: TO1-OAc (TO1-acetate), TO1-ME (TO1-methylester), TO1-PA (TO1-propanylamide), TO1-PE (TO1-pentenoylester) (FIG. 42, Table 8 & 9). Binding affinity and fluorescence enhancement of TO1-OAc is drastically diminished, and nearly identical between the wild-type and A22U mutant. […] Further extension of the linker stabilizes the binding pocket by stacking on T3 but becomes sterically hindered by a bulky purine in position 22. The A22U mutation would limit steric clashes while preventing misfolding of the G-quadruplex core. Thus, the improved properties of the Mango-II A22U mutant may arise from improved packing of the linker of the fluorophore with an RNA with a homogeneous or predominant conformation.
(§2) Fluorescence readings were recorded using a Varian Cary Eclipse Spectrophotometer set to measure at the maximum excitation and emission wavelengths of the Mango II aptamer dye complex. Fluorescence titrations were performed in Mango selection buffer (WB: 140 mM KCl, 1 mM MgCl2, 10 mM NaH2PO4 pH 7.2, 0.05% Tween-20).

[2] = Temperature dependent fluorescence and UV melting; assay type: physicochemical
Procedure: FIG. 11|Temperature-dependent fluorescent and UV absorbance spectroscopy of new Mango variants. Line plots of temperature-dependent spectroscopy for Mango I (data obtained from previous work)^1, Mango II, Mango III, and Mango IV. […] Starting at 90° C., temperature was ramped down at a rate of 1° C./min to 20° C. (darker shade) and returned to 90° C. at a rate of 1° C./min (lighter shade).
Temperature dependence measurements were started at 90° C. decreasing at a rate of 1° C./min until 20° C., then returned at 1° C./min until 90° C. was reached. […] Temperature dependence of fluorescence and absorbance were measured using a Varian Cary Eclipse Fluorescence Spectrophotometer at excitation and emission peaks and a Varian Cary 100 Bio UV-visible spectrophotometer monitoring at 260 nm.

[3] = Salt dependence of Mango/TO1-Biotin fluorescence: Mg2+ titration; conditions: in the presence of potassium; Mg2+ 256 mM
Procedure: (§3) FIG. 10|Salt dependence of new Mango variants. Dependence of fluorescence of each Mango for (a) K^+, (b) Na^+ in place of K^+, and (c) Mg^2+ ions in a buffer containing 140 mM K^+. […] 10 mM Tris buffer (pH 7.2) was used in place of phosphate of the WB buffer to avoid monovalent counter ions. Color-coding is as follows: Black—Mango I, Blue—Mango II, Green—Mango III, Orange—Mango IV. Hill coefficients are fitted to dark points. Points in lighter shade have been excluded from the fit. Error bars are standard deviations of three replicates.

[4] = Fluorescence enhancement of TO1-PE; assay type: biochemical; conditions: ligand TO1-PE
Procedure: The bandwidth for all measurements was 1.5 nm for all experiments. Measurements were performed in a 0.2 cm path length cuvette in a background of 20 mM MOPS pH 7.0, 150 mM KCl, 10 μM EDTA. Fluorescence readings were taken in the absence of RNA at a ligand concentration of 0.82 μM. A concentrated, annealed stock of RNA was then added to the cuvette resulting in a final concentration of 2 μM RNA and allowed to equilibrate for 1 minute prior to taking an emission reading. Fluorescence enhancement was determined by dividing the fluorescence signal of ligand in the presence of RNA by the fluorescence signal in the absence of RNA corrected for the background of the instrument.

[5] = Salt dependence of Mango/TO1-Biotin fluorescence: Na+ in place of K+; assay type: binding
Procedure: as §3

[6] = Salt dependence of Mango/TO1-Biotin fluorescence: K+ titration; assay type: binding; conditions: 25 nM RNA, 50 nM TO1-Biotin, 10 mM Tris pH 7.2
Procedure: as §3

[7] = Brightness and photophysics of Mango fluorophore complexes; assay type: physicochemical
Text: FIG. 2|RNA Mango I, II, III and IV core sequences and their properties. (a) Color coded alignment of RNA Mango I, II, III and IV. G residues in yellow are protected from DMS cleavage (data from panel d) when folded in the presence of fluorophore. Quadruplex stacks and their associated propeller sequences are numbered 1 through 4. The GAAA isolation motif of Mango I, together with two adenines essential for binding, are shown in green and red respectively. Purple shading represents a flanking stem region common for all four Mango aptamers. Schematic: A tertiary structure schematic of Mango I, showing tier 1, 2 and 3 of its quadruplex structure (T1, T2 and T3) and color-coded as in (a). […] Bottom: Top view of the Mango I core (PBD ID: 5V3F), showing the T3 tier of the quadruplex and relevant propeller residues, color coding matches the schematic and panel a. […] KD values are shown next to each titration. (c) Same as for panel b but using 20 nM TO3-Biotin. Data for panels b and c have been normalized such that Mango I has a maximum fluorescence of 1. Error bars are standard deviation of three replicates. (d) DMS chemical protection patterns for the four Mango aptamers. 3′ end-labelled RNA (terminal ^32pCp shown as a black asterisk) was subjected to DMS chemical modification followed by reduction by NaBH4 and aniline cleavage as described in the methods. […] Legend: T1—denatured T1 ladder; OH—partial alkaline hydrolysis ladder; (−) DMS—denatured reaction with ddH2O added in place of DMS; 80° C.
FIG. 13|Photophysics: excitation/emission. (a) Excitation (dark curve) and emission (light curve) spectra of each Mango. All Mangos have Δex max=510 nm and Δem max=535 nm. Color-coding is as follows: Black—Mango I, Blue—Mango II, Green—Mango III, Red—Mango IV.
Fluorescence data was gathered using a Varian Cary Eclipse Spectrophotometer unless otherwise stated. […] Fluorescence was measured at the maximum excitation and emission wavelengths of each complex (FIG. 13).

[8] = Formaldehyde resistance assay; assay type: physicochemical; conditions: in vitro, TO1-Biotin
Procedure: FIG. 15|Effect of formaldehyde on Mango fluorescence. […] In (b) RNA is incubated with the corresponding amounts of formaldehyde first for one hour, then TO1-Biotin is added. Data for each panel is normalized to RFU at the 0% formaldehyde, 0 min point.
RNA Mango aptamers were incubated with TO1-Biotin in WB buffer for at least one hour until equilibrium fluorescence was reached. […] Fluorescence was measured as a kinetic run at a rate of 2 readings per minute using a Varian Cary Eclipse Fluorescence Spectrophotometer, ex/em=510±2.5/535±5 nm.

[9] = Fluorescence titration, binding affinity for TO1-PE; conditions: ligand TO1-PE
Text: as §1, §2

Mango-II: minimal construct engineered from isolate R2-1; SEQ ID NO: 6902 GCGUACGAAGGAGAGGAGAGGAAGAGGAGAGUACGC (chemistry not given here)
Kd [1]: 0.056 ± 0.002 µM | thermostability [2]: more thermostable than Mango-I | effect of high levels of Mg^2+ on fluorescence [3]: significantly resistant | FIE (fluorescence enhancement) [4]: 783 ± 13 | fluorescence in the presence of sodium ions [5]: did not fluoresce appreciably | Hill Coefficients Na^+ ([5]; Na+ in place of K+, 25 nM RNA, 50 nM TO1-Biotin): 0.8 ± 0.1 | Kd [6]: 39 ± 10 mM | Hill Coefficients K^+ ([6]; * estimated from initial rise of fluorescence): 1.4 ± 0.2 | quantum yield of the TO1-Biotin complex [7]: 0.21 | brightness of the TO1-Biotin bound complex ([7]; TO1-Biotin complex): 17,000 M^−1cm^−1 | brighter than Mango-I ([7]; TO1-Biotin, FIG. 2b): 1.5 fold | resistance to formaldehyde [8]: substantially resistant to formaldehyde; also recorded: remarkably formaldehyde resistant | Kd [9]: 0.00037 ± 6e-05 µM

B1: Mango II - A22U: Mango-II point mutant; SEQ ID NO: 6903 / 6905 (nucleic acid)
chain 1: GCGUACGAAGGAGAGGAGAGGUAGAGGAGAGUACGC
chain 2: GGCACGUACGAAGGAGAGGAGAGGUAGAGGAGAGUACGUGC
modifications: chemistry not given here
Kd [1]: 0.043 ± 0.003 µM | FIE (fluorescence enhancement) [4]: 825 ± 14 | Kd [9]: 0.001 ± 0.00013 µM
